# Measurements as given in patent US9670193B2 (Novartis AG, priority 2011, dated 2017).
# Experiments:
# Format in all cases: biochemical
# Settings in all cases: 5 μM substrate, 2 hours at room temperature
# Human recombinant HDAC4 = Human recombinant HDAC4 (Homo sapiens (Human), UniProt P56524); experiment: HDAC4 assay (Test 1), fluorescence, acetyl-Gly-Ala-Lys(ε-trifluoroacetyl)-AMC substrate
# Method: Test 1: HDAC4 Assay Description
# (§1) Human recombinant HDAC4 was expressed in full length form (aa 2-1084) in Sf9 insect cells (obtained from ATCC) using baculovirus generated with Bac-to-Bac system (Invitrogen). Test compounds were serially diluted to reach final test concentrations from 0.000128 μM to 10 μM. HDAC4 and test compounds were incubated in 25 mM Tris buffer pH 8.0 containing 137 mM NaCl, 2.7 mM KCl, 1 mM MgCl2, 0.05% (w/v) bovine serum albumine and 0.005% (v/v) Triton-X-100 for 2 hours at room temperature in presence of 5 μM of acetyl-Gly-Ala-Lys(ε-trifluoroacetyl)-AMC (AMC=7-amino-4-methyl coumarin) in a final volume of 9 μl. Control wells with HDAC4 only (positive control) and without HDAC4 (negative control) were included on the microplate. Bovine trypsin (4.5 μl of a 300 nM solution) was added and the plate incubated for additional 15 minutes at room temperature. The plate was placed in a fluorescence microplate reader, and read at an excitation wavelength of 360 nm and an emission wavelength of 450 nm with a 10 nm bandpath. Fluorescence values for all wells containing HDAC4 (positive control and wells with test compound) were corrected by subtracting negative control fluorescence values, and IC50 values were calculated by fitting the dose-response curves to a 4-parameter logistic function.
# [1] = biological target: Human recombinant full length HDAC1 (Homo sapiens (Human), UniProt Q13547); experiment: HDAC1 assay (Test 2), acetyl-Gly-Ala-Lys(acetyl)-AMC substrate
# Method: as §1
# Test 2: HDAC1 Assay Description
# A similar assay procedure as described in Test 1 was used for HDAC1. Human recombinant full length HDAC1 expressed in a baculovirus expression system was purchased from BPS BioSciences (San Diego, Calif., U.S.A.). The substrate used in the […] assay was 5 μM of acetyl-Gly-Ala-Lys(acetyl)-AMC.
# [2] = biological target: Human recombinant full length HDAC6 (Homo sapiens (Human), UniProt Q9UBN7); experiment: HDAC6 assay (Test 3), acetyl-Gly-Ala-Lys(acetyl)-AMC substrate
# Method: as §1
# Test 3: HDAC6 Assay Description
# A similar assay procedure as described in Test 1 was used for HDAC6. Human recombinant full length HDAC6 expressed in a baculovirus expression system was purchased from BPS BioSciences (San Diego, Calif., U.S.A.). The substrate used in the […] assay was 5 μM of acetyl-Gly-Ala-Lys (acetyl)-AMC.
# Human recombinant HDAC4, sequence (P56524 2-1084): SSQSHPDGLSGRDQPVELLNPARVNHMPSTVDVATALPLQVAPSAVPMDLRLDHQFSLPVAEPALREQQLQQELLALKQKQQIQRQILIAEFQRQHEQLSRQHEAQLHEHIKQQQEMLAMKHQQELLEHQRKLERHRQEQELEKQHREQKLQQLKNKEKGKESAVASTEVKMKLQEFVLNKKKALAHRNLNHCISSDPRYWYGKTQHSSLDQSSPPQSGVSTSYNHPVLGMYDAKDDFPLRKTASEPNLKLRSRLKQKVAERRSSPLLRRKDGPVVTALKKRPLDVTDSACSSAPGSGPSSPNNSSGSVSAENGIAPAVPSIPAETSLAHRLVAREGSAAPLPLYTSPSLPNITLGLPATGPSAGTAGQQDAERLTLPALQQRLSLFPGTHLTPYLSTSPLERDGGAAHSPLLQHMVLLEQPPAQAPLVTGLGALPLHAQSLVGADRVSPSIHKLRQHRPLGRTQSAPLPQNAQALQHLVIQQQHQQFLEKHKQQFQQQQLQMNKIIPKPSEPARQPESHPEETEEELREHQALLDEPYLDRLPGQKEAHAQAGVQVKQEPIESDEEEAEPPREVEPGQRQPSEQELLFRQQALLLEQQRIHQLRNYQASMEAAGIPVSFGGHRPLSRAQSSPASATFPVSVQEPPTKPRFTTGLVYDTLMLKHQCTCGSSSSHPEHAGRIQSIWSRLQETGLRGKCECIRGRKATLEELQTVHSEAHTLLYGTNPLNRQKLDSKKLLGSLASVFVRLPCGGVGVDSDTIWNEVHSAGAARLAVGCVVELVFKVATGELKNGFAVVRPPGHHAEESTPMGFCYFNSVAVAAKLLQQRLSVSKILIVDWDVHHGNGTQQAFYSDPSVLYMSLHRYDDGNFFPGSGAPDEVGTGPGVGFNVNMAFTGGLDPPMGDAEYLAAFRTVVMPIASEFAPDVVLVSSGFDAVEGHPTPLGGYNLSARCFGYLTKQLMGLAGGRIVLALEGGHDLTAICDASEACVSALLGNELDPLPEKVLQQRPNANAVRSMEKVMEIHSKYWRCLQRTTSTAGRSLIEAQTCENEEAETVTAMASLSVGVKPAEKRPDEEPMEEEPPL
# Human recombinant full length HDAC1, sequence (Q13547 whole entry): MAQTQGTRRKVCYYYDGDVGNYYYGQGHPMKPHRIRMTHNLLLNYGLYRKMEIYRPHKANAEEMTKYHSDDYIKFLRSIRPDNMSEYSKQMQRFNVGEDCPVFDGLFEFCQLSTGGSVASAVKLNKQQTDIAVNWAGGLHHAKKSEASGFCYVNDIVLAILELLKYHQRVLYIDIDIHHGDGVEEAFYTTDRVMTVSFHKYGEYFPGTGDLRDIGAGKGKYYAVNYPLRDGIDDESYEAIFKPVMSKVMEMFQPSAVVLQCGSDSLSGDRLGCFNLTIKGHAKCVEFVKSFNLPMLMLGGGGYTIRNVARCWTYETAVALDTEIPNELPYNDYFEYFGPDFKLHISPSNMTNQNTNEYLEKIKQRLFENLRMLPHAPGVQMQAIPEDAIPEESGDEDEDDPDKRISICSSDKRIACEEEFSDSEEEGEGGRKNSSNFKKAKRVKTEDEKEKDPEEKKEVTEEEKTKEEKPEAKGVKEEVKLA
# Human recombinant full length HDAC6, sequence (Q9UBN7 whole entry): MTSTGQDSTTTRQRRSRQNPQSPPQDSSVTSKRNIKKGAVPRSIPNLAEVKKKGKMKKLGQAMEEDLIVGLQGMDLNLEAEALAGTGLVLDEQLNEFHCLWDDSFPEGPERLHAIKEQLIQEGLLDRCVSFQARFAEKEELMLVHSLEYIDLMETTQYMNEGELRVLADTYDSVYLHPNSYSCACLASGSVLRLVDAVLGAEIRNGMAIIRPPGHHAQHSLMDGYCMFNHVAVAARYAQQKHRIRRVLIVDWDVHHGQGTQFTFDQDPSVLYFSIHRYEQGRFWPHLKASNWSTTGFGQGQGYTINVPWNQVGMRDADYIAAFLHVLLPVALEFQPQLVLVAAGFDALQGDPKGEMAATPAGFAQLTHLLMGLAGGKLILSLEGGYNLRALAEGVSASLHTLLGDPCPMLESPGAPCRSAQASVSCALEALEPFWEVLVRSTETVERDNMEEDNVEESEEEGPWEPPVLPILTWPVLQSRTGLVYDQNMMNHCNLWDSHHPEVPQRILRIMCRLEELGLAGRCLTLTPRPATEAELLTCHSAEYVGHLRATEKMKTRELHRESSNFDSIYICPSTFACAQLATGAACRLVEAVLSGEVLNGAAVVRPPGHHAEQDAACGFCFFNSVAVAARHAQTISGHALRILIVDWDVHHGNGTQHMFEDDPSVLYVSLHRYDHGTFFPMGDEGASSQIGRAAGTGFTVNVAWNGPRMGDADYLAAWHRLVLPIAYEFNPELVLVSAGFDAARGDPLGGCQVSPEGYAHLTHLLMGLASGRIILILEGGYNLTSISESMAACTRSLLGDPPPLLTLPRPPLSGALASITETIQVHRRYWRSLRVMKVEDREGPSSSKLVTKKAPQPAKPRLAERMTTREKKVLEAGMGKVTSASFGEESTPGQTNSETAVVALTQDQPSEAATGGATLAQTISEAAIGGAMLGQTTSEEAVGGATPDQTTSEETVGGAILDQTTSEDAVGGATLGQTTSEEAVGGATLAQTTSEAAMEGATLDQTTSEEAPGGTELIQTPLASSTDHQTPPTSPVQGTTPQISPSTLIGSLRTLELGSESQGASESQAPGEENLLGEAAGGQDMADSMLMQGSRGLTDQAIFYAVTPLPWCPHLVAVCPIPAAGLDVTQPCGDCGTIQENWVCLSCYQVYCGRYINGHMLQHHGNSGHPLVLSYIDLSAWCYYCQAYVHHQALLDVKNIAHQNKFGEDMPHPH
SMILES,IC50 (Human recombinant HDAC4) [nM],IC50 [1] [nM],IC50 [2] [nM]
"FC(F)(F)c1nc(-c2ncc(NCc3ccncc3)cn2)no1 [Example 43, N-(Pyridin-4-ylmethyl)-2-(5-(trifluoromethyl)-1,2,4-oxadiazol-3-yl)pyrimidin-5-amine]",190,4700,1100
"C[C@H](CN(C)C)NC(=O)c1cnc(-c2noc(C(F)(F)F)n2)nc1 [Example 26, (R)—N-(1-(dimethylamino)propan-2-yl)-2-(5-(trifluoromethyl)-1,2,4-oxadiazol-3-yl)pyrimidine-5-carboxamide]",420,> 10000,> 10000
"CC(Nc1ncc(-c2noc(C(F)(F)F)n2)cc1Cl)c1ccncc1 (stereo not drawn) [Example 36, 3-chloro-N-(1-(pyridin-4-yl)ethyl)-5-(5-(trifluoromethyl)-1,2,4-oxadiazol-3-yl)pyridin-2-amine]",6.4,860,1100
"FC(F)(F)c1nc(-c2cnc(NCc3ccccc3)c(Cl)c2)no1 [Example 33, N-benzyl-3-chloro-5-(5-(trifluoromethyl)-1,2,4-oxadiazol-3-yl)pyridin-2-amine]",93,> 10000,> 10000
"Cc1cc(CN(C)c2ncc(-c3noc(C(F)(F)F)n3)cn2)ccn1 [Example 17, N-methyl-N-((2-methylpyridin-4-yl)methyl)-5-(5-(trifluoromethyl)-1,2,4-oxadiazol-3-yl)pyrimidin-2-amine]",34,2200,3500
"C[C@H](CN(C)C)NC(=O)c1ncc(-c2noc(C(F)(F)F)n2)cc1Cl [Example 25, (R)-3-chloro-N-(1-(dimethylamino)propan-2-yl)-5-(5-(trifluoromethyl)-1,2,4-oxadiazol-3-yl)picolinamide]",3600,> 10000,> 10000
"FC(F)(F)c1nc(-c2ccc(NCc3ccccc3)nn2)no1 [Example 40, N-benzyl-6-(5-(trifluoromethyl)-1,2,4-oxadiazol-3-yl)pyridazin-3-amine]",200,7900,840
"C[C@@H](CO)NC(=O)c1ccc(-c2noc(C(F)(F)F)n2)nc1 [Example 20, (S)—N-(1-hydroxypropan-2-yl)-6-(5-(trifluoromethyl)-1,2,4-oxadiazol-3-yl)nicotinamide]",4300,> 10000,> 10000
"FC(F)(F)c1nc(-c2cnc(NCc3cccnc3)nc2)no1 [Example 10, N-(pyridin-3-ylmethyl)-5-(5-(trifluoromethyl)-1,2,4-oxadiazol-3-yl)pyrimidin-2-amine]",140,6600,1100
"FC(F)(F)c1nc(-c2ccc(NCc3ccccc3)cn2)no1 [Example 27, N-benzyl-6-(5-(trifluoromethyl)-1,2,4-oxadiazol-3-yl)pyridin-3-amine]",2800,9600,> 10000
"CCN(CC)C[C@@H](C)NC(=O)c1ccc(-c2noc(C(F)(F)F)n2)nc1 [Example 23, (R)—N-(1-(diethylamino)propan-2-yl)-6-(5-(trifluoromethyl)-1,2,4-oxadiazol-3-yl)nicotinamide]",28,> 10000,> 10000
"CCN(CC)C[C@H](NC(=O)c1ccc(-c2noc(C(F)(F)F)n2)nc1)C(C)C [Example 22, (R)—N-(1-(diethylamino)-3-methylbutan-2-yl)-6-(5-(trifluoromethyl)-1,2,4-oxadiazol-3-yl)nicotinamide]",160,> 10000,> 10000
C[C@H](CN(C)Cc1ccccc1)NC(=O)c1cnc(-c2noc(C(F)(F)F)n2)nc1 [Example 46],66,> 10000,> 10000
"Cc1ccc(CNc2ncc(-c3noc(C(F)(F)F)n3)cc2Cl)cn1 [Example 38, 3-Chloro-N-((6-methylpyridin-3-yl)methyl)-5-(5-(trifluoromethyl)-1,2,4-oxadiazol-3-yl)pyridin-2-amine]",21,1400,1550
"CCC(Nc1ncc(-c2noc(C(F)(F)F)n2)cn1)c1ccncc1 (stereo not drawn) [Example 15, N-(1-(pyridin-4-yl)propyl)-5-(5-(trifluoromethyl)-1,2,4-oxadiazol-3-yl)pyrimidin-2-amine]",20,2600,210
"CN(CCc1ccncc1)c1ncc(-c2noc(C(F)(F)F)n2)cn1 [Example 14, N-methyl-N-(2-(pyridin-4-yl)ethyl)-5-(5-(trifluoromethyl)-1,2,4-oxadiazol-3-yl)pyrimidin-2-amine]",110,7600,> 10000
"CC(Nc1ncc(-c2noc(C(F)(F)F)n2)cn1)c1ccncc1 (stereo not drawn) [Example 9, N-(1-(pyridin-4-yl)ethyl)-5-(5-(trifluoromethyl)-1,2,4-oxadiazol-3-yl)pyrimidin-2-amine]",22,4100,560
"FC(F)(F)c1nc(-c2cnc(NCc3ccncc3)c(Cl)c2)no1 [Example 35, 3-chloro-N-(pyridin-4-ylmethyl)-5-(5-(trifluoromethyl)-1,2,4-oxadiazol-3-yl)pyridin-2-amine]",11,1100,1800
"CC(Nc1ccc(-c2noc(C(F)(F)F)n2)cn1)c1ccccc1 (stereo not drawn) [Example 29, N-(1-phenylethyl)-5-(5-(trifluoromethyl)-1,2,4-oxadiazol-3-yl)pyridin-2-amine]",27,6200,640
"CN(Cc1ccnc(Cl)c1)c1ncc(-c2noc(C(F)(F)F)n2)cn1 [Example 5, N-((2-chloropyridin-4-yl)methyl)-N-methyl-5-(5-(trifluoromethyl)-1,2,4-oxadiazol-3-yl)pyrimidin-2-amine]",40,1700,2100
Cc1cc(C(C)Nc2ncc(-c3noc(C(F)(F)F)n3)cn2)ccn1 (stereo not drawn) [Example 16],44,1600,350
"C[C@H](CN(C)C)NC(=O)c1ccc(-c2noc(C(F)(F)F)n2)nc1 [Example 18, (R)—N-(1-(dimethylamino)propan-2-yl)-6-(5-(trifluoromethyl)-1,2,4-oxadiazol-3-yl)nicotinamide]",250,> 10000,> 10000
"FC(F)(F)c1nc(-c2ccc(NCc3ccccc3)nc2)no1 [Example 28, N-benzyl-5-(5-(trifluoromethyl)-1,2,4-oxadiazol-3-yl)pyridin-2-amine]",73,> 10000,3000
"FC(F)(F)c1nc(-c2cnc(NCc3ccccn3)c(Cl)c2)no1 [Example 39, 3-chloro-N-(pyridin-2-ylmethyl)-5-(5-(trifluoromethyl)-1,2,4-oxadiazol-3-yl)pyridin-2-amine]",37,2500,1900
"CC(=O)Nc1cnc(-c2noc(C(F)(F)F)n2)cn1 [Example 1, N-(5-(5-(trifluoromethyl)-1,2,4-oxadiazol-3-yl)pyrazin-2-yl)acetamide]",460,> 10000,1700
"FC(F)(F)c1nc(-c2cnc(NCc3ccncc3)nc2)no1 [Example 6, N-(pyridin-4-ylmethyl)-5-(5-(trifluoromethyl)-1,2,4-oxadiazol-3-yl)pyrimidin-2-amine]",44,620,990
"C[C@@H](Nc1cnc(-c2noc(C(F)(F)F)n2)nc1)c1ccccc1 [Example 41, (R)—N-(1-Phenylethyl)-2-(5-(trifluoromethyl)-1,2,4-oxadiazol-3-yl)pyrimidin-5-amine]",60,4000,1300
"FC(F)(F)c1nc(-c2cnc(NCc3ccccc3)nc2)no1 [Example 4, N-benzyl-5-(5-(trifluoromethyl)-1,2,4-oxadiazol-3-yl)pyrimidin-2-amine]",36,> 10000,320
"C[C@@H](Nc1ncc(-c2noc(C(F)(F)F)n2)cc1Cl)c1ccccc1 [Example 34, (R)-3-chloro-N-(1-phenylethyl)-5-(5-(trifluoromethyl)-1,2,4-oxadiazol-3-yl)pyridin-2-amine]",47,6300,4500
C[C@@H](Nc1ccc(-c2noc(C(F)(F)F)n2)cn1)c1ccncc1 [Example 44],29,2700,1030
